According to ChEMBL document CHEMBL5625204, “Synthesis and pharmacodynamic evaluation of naphthalene derivatives against influenza A virus in vitro and in vivo” (Eur J Med Chem, 2023):
Calls of active or inactive are those of the source. The rule behind the calls is not given here.

Assays:
Influenza A virus [1] = test: Inhibition of Influenza A virus replication infected in dog MDCK cells assessed as downregulation of virus NP protein expression by measuring decrease in green fluorescence intensity at 25 to 50 uM measured after 24 hrs by immunofluorescence analysis; assay type: functional, organism-based; details: dose 25-50 µM
Influenza A virus [2] = test: Antiviral activity against Influenza A virus H1N1 (A/Weiss/43) infected in MDCK cells assessed as reduction of viral replication treated for 2 hrs during viral adsorption and measured after 72 hrs by TCID50 method; assay type: functional, organism-based
Influenza A virus [3] = test: Antiviral activity against Influenza A virus H1N1 infected in human A549 cells assessed as decrease in cytokine gene expression by measuring decrease in IFN-beta gene expression at 25 to 50 uM measured after 24 hrs by qRT-PCR analysis; assay type: functional, organism-based; details: dose 25-50 µM
Influenza A virus [4] = test: Antiviral activity against Influenza A virus H1N1 infected in dog MDCK cells assessed as decrease in apoptosis by measuring proportion of early apoptotic cells at 50 uM measured after 72 hrs by AnnexinV-FITC/PI staining based flow cytometry (reference value: 24.3%); assay type: functional; set-up: scale not given: the % may be the effect or the level left
Influenza A virus [5] = test: Antiviral activity against Influenza A virus H1N1 infected in dog MDCK cells assessed as decrease in apoptosis by measuring proportion of viable cells at 25 uM measured after 72 hrs by AnnexinV-FITC/PI staining based flow cytometry (reference value: 62.9%); assay type: functional
Influenza A virus [6] = test: Antiviral activity against Influenza A virus H1N1 (A/Virginia/ATCC2/2009) infected in MDCK cells assessed as reduction of viral replication incubated for 72 hrs by TCID50 method; assay type: functional, organism-based
[7] = Cytotoxicity against dog MDCK cells assessed as reduction in cell viability incubated for 72 hrs by MTT assay; assay type: toxicity, cell-based, Canis lupus familiaris
Influenza A virus [8] = test: Antiviral activity against Influenza A virus H1N1 infected in human A549 cells assessed as decrease in apoptosis by measuring decrease in cleaved caspase-9 protein expression at 25 to 50 uM measured after 24 hrs by western blot analysis; assay type: functional, organism-based; details: dose 25-50 µM
Erythrocyte = test: Inhibition of Hemagglutinin1 in Influenza A virus assessed as inhibition of virus-induced hemagglutination at 7.81 to 250 uM pretreated with virus for 30 mins followed by chicken RBC addition and measured after 1 hr; assay type: cell-based; details: dose 7.81-250 µM, time 90.0 min
Influenza A virus [9] = test: (§1) Antiviral activity against Influenza A virus H1N1 (A/Weiss/43)-infected in dog MDCK cells assessed as reduction in oxidative stress by measuring proportion of cells with excessive ROS accumulation at 50 uM treated at 2 hrs post-infection and measured after 36 hrs by DCFH-DA staining based flow cytometry (reference value: 30.6%); assay type: functional; set-up: scale not given: the % may be the effect or the level left
Influenza A virus [10] = test: as §1, with “25” for “50”; assay type: functional; set-up: scale not given: the % may be the effect or the level left
[11] = Selectivity index, ratio of CC50 for dog MDCK cells to EC50 for antiviral activity against Influenza A virus H3N2 (A/California/2004) infected in MDCK cells; assay type: toxicity, cell-based; details: read-out: Ratio CC50/EC50
Influenza A virus [12] = test: Antiviral activity against Influenza A virus H1N1 (A/Weiss/43) infected in MDCK cells assessed as reduction of viral replication at 50 uM treated for 2 to 4 hrs after viral infection and measured after 72 hrs by MTT method; assay type: functional, organism-based; details: time 74-76 hrs
Influenza A virus [13] = test: Antiviral activity against Influenza A virus H1N1 infected in dog MDCK cells assessed as decrease in apoptosis by measuring proportion of viable cells at 50 uM measured after 72 hrs by AnnexinV-FITC/PI staining based flow cytometry (reference value: 62.9%); assay type: functional
MDCK = test: Cytotoxicity against dog MDCK cells assessed as cell pathological changes at 50 uM by microscopic analysis; assay type: toxicity, cell-based, Canis lupus familiaris
Influenza A virus [14] = test: Antiviral activity against Influenza A virus H1N1 (A/Weiss/43) infected in MDCK cells assessed as reduction of viral replication treated for 72 hrs after viral adsorption by TCID50 method; assay type: functional, organism-based
Influenza A virus [15] = test: Antiviral activity against Influenza A virus H1N1 infected in dog MDCK cells assessed as decrease in apoptosis by measuring proportion of late apoptotic cells at 25 uM measured after 72 hrs by AnnexinV-FITC/PI staining based flow cytometry (reference value: 10.3%); assay type: functional; set-up: scale not given: the % may be the effect or the level left
Influenza A virus [16] = test: Antiviral activity against Influenza A virus H1N1 infected in human A549 cells assessed as decrease in RIG-1 pathway related protein expression by measuring decrease in RIG-1 protein expression at 25 to 50 uM measured after 24 hrs by western blot analysis; assay type: functional, organism-based; details: dose 25-50 µM
Influenza A virus [17] = test: Antiviral activity against Influenza A virus H1N1 (A/Weiss/43)-infected in BALB/c mouse assessed as reduction in MyD88 gene expression in lungs at 25 to 100 mg/kg/day administered intranasally for 6 days starting from 3 hrs post-viral infection by qRT-PCR analysis; assay type: functional, organism-based; details: dose 25-100 mg/kg/day, route nas, time 6.0 day
Influenza A virus [18] = test: Antiviral activity against Influenza A virus H1N1 (A/Weiss/43)-infected in BALB/c mouse assessed as reduction in pulmonary inflammation at 25 to 100 mg/kg/day administered intranasally for 6 days starting from 3 hrs post-viral infection by Hematoxylin-Eosin staining based analysis; assay type: functional, organism-based; details: dose 25-100 mg/kg/day, route nas, time 6.0 day
Influenza A virus [19] = test: Antiviral activity against Influenza A virus H1N1 (A/Weiss/43)-infected in BALB/c mouse assessed as reduction in TNF-alpha gene expression in lungs at 25 to 100 mg/kg/day administered intranasally for 6 days starting from 3 hrs post-viral infection by qRT-PCR analysis; assay type: functional, organism-based; details: dose 25-100 mg/kg/day, route nas, time 6.0 day
Influenza A virus [20] = test: Inhibition of Influenza A virus replication infected in human A549 cells assessed as downregulation of virus NP protein expression at 25 to 50 uM measured after 24 hrs by western blot analysis; assay type: functional, organism-based; details: dose 25-50 µM
Influenza A virus [21] = test: Antiviral activity against Influenza A virus H1N1 (A/Weiss/43)-infected in BALB/c mouse assessed as reduction in lung index at 25 mg/kg/day administered intranasally for 6 days starting from 3 hrs post-viral infection; assay type: functional; details: 144 h, route nas, time 6 day
Influenza A virus [22] = test: Antiviral activity against Influenza A virus H1N1 infected in human A549 cells assessed as decrease in cytokine gene expression by measuring decrease in IL-8 gene expression at 25 to 50 uM measured after 24 hrs by qRT-PCR analysis; assay type: functional, organism-based; details: dose 25-50 µM
Influenza A virus [23] = test: Antiviral activity against Influenza A virus H1N1 infected in human A549 cells assessed as decrease in apoptosis inducing factor gene expression by measuring decrease in TRAIL gene expression at 25 to 50 uM measured after 24 hrs by qRT-PCR analysis; assay type: functional, organism-based; details: dose 25-50 µM
Influenza A virus [24] = test: Antiviral activity against Influenza A virus H1N1 (A/Weiss/43)-infected in BALB/c mouse assessed as reduction in IFN-beta gene expression in lungs at 25 to 100 mg/kg/day administered intranasally for 6 days starting from 3 hrs post-viral infection by qRT-PCR analysis; assay type: functional, organism-based; details: dose 25-100 mg/kg/day, route nas, time 6.0 day

In the case of O=[N+]([O-])c1ccc(S(=O)(=O)N(Cc2ccccc2)c2cccc3ccccc23)cc1, the inhibition (Influenza A virus [1]) is reported as “Active”, the EC50 (Influenza A virus [2]) is reported as 6.09 µM and the inhibition (Influenza A virus [3]) is reported as “Active”. It also gave an Activity (Influenza A virus [4]) of 2.93%, an Activity (Influenza A virus [5]) of 95.4% and an EC50 (Influenza A virus [6]) of 3.34 µM. For the same molecule, the CC50 at 72 h [7] was > 800 µM, the inhibition (Influenza A virus [8]) was “Active” and the inhibition (Erythrocyte) was “inactive”. The Activity (Influenza A virus [9]) was 4.66%, the Activity (Influenza A virus [10]) was 12.3% and the selectivity ratio [11] was > 121. The Activity (Influenza A virus [12]) was “Active”, the Activity (Influenza A virus [13]) was 95.4% and the Activity (MDCK) was “Non-Toxic”. For the same molecule, the EC50 (Influenza A virus [14]) was 2.28 µM, the Activity (Influenza A virus [15]) was 1.21% and the inhibition (Influenza A virus [16]) was “Active”. The Activity (Influenza A virus [17]) was “Active”, the Activity (Influenza A virus [18]) was “Dose-Dependent Effect” and the Activity (Influenza A virus [19]) was “Active”. For the same molecule, the inhibition (Influenza A virus [20]) was “Active”, the inhibition in vivo at 25 mg/kg/day (Influenza A virus [21]) was 20.6% and the inhibition (Influenza A virus [22]) was “Active”. The inhibition (Influenza A virus [23]) was “Active” and the Activity (Influenza A virus [24]) was “Active”.
